Reference: patent publication US9597342B2 (UWM Research Foundation, Inc., priority 2011, dated 2017)
Marks after values point to notes of the source that are not given here.

Experiments:
[1] = In vitro metabolic stability using human liver microsomes; conditions: for % remaining: at both 1 and 10 μM
Experimental: The metabolic stability of 15 GABAA receptor ligands using human liver microsomes was studied. The test articles were incubated at two concentrations (1 and 10 μM) and aliquots (100 μl) were removed at various time points (0, 15, 30 and 60 minutes), and analyzed by LC-MS/MS.
(§1) The test articles were incubated at two concentrations (1 and 10 μM) in 96-well plate format with active or heat-inactivated human liver microsomes and cofactors. Aliquots were removed at 0, 15, 30 and 60 minutes and mixed with acetonitrile containing internal standard for analysis. Samples were extracted and assayed using a liquid chromatography/tandem mass spectrometry (LC-MS/MS) analytical method.
Pooled human liver microsomes (Lot #38289, pool of 150 different male and female donor livers) were obtained from BD Biosciences Corporation (Woburn, Mass.). Microsomes were stored at ˜−135° C. until use.
(§2) The test articles (1 and 10 μM) were incubated with human liver microsomes (0.5 mg protein/ml) and appropriate cofactors (2.5 mM NADPH and 3.3 mM magnesium chloride) in 100 mM phosphate buffer, pH 7.4 (0.1% final DMSO), in a 37° C. water bath. Incubations with all compounds were initiated with the addition of microsomes. At selected time points (0, 15, 30 and 60 min), a single 100 μl aliquot was removed from each sample and mixed with 200 μl of chilled acetonitrile containing internal standard. Following brief vortexing and centrifugation, the samples were further diluted into a 96-well plate for subsequent LC-MS/MS analysis. All samples were assayed in duplicate.
(§3) Experimental controls consisted of: a) incubation of all components except test article for 0 and 60 min, b) incubation of midazolam (positive control) at 10 μM for 0, 15, 30 and 60 min, and c) incubation of 1 and 10 μM test article and 10 μM midazolam with heat-inactivated microsomes (0.5 mg protein/ml) for 0 and 60 min. All controls were assayed in duplicate.
Samples were analyzed by LC-MS/MS in multiple reaction monitoring mode using positive-ion electrospray ionization. The details of the LC-MS/MS method can be provided upon request.
(§4) Data from the metabolic stability assays were transferred to and processed in a Microsoft Excel spreadsheet. To determine metabolic stability, the percent remaining at each time point was calculated by dividing the peak area ratio of test article/internal standard at each time point by the peak area ratio at 0 min multiplied by 100.

[2] = Incubation with heat-inactivated human liver microsomes (stability control); conditions: 60 min
Experimental: as §1, §2, §3, §4

| Structure (SMILES) | melting point | Mean % Remaining vs T = 0 min, Human Liver Microsomes ([1]; 1 μM, 15 min) | Mean % Remaining vs T = 0 min, Human Liver Microsomes ([1]; 1 μM, 30 min) | Mean % Remaining vs T = 0 min, Human Liver Microsomes ([1]; 1 μM, 60 min) | Mean % Remaining vs T = 0 min, Human Liver Microsomes ([1]; 10 μM, 15 min) | Mean % Remaining vs T = 0 min, Human Liver Microsomes ([1]; 10 μM, 30 min) | Mean % Remaining vs T = 0 min, Human Liver Microsomes ([1]; 10 μM, 60 min) | Mean % Remaining vs T = 0 min, with HI (Heat Inactivated) Microsomes ([2]; 1 μM) | Mean % Remaining vs T = 0 min, with HI (Heat Inactivated) Microsomes ([2]; 10 μM) | % remaining ([1]; 15 min) | Mean % Remaining vs T = 0 min, Human Liver Microsomes ([1]; 10 μM, 15 min, positive control, data from three experiments) | Mean % Remaining vs T = 0 min, Human Liver Microsomes ([1]; 10 μM, 30 min, positive control, data from three experiments) | Mean % Remaining vs T = 0 min, Human Liver Microsomes ([1]; 10 μM, 60 min, positive control, data from three experiments) | metabolism observed (in words) ([1]; active human liver microsomes, up to 60 min) | Mean % Remaining vs T = 0 min, with HI (Heat Inactivated) Microsomes ([2]; 10 μM, positive control, data from three experiments) |
| --- | --- | --- | --- | --- | --- | --- | --- | --- | --- | --- | --- | --- | --- | --- | --- |
| C#Cc1ccc2c(c1)C(c1ccccc1)=NCc1c(C(=O)OCCCCCOC(=O)c3ncn4c3CN=C(c3ccccc3F)c3cc(C#C)ccc3-4)ncn1-2 | 145 to 150 °C |  |  |  |  |  |  |  |  |  |  |  |  |  |  |
| CN1Cc2c(C(=O)OCCCCOC(=O)c3ncn4c3CN(C)C(=O)c3cc(Cl)ccc3-4)ncn2-c2ccc(Cl)cc2C1=O | 308 to 312 °C |  |  |  |  |  |  |  |  |  |  |  |  |  |  |
| CN1Cc2c(C(=O)OCCCCCOC(=O)c3ncn4c3CN(C)C(=O)c3cc(Cl)ccc3-4)ncn2-c2ccc(Cl)cc2C1=O | 146 to 152 °C |  |  |  |  |  |  |  |  |  |  |  |  |  |  |
| CN1Cc2c(C(=O)N3CCN(C(=O)c4ncn5c4CN(C)C(=O)c4cc(Cl)ccc4-5)CC3)ncn2-c2ccc(Cl)cc2C1=O | 367 to 374 °C |  |  |  |  |  |  |  |  |  |  |  |  |  |  |
| C#Cc1ccc2c(c1)C(c1ccccn1)=NCc1c(C(=O)OCC)ncn1-2 [HZ-166] |  | 106% | 98.4% | 80.4% | 104% | 90.7% | 76.3% | 94.1% | 95.4% |  |  |  |  |  |  |
| C#Cc1ccc2c(c1)C(c1ccccc1F)=NCc1c(C(=O)OCC)ncn1-2 [JY-XHe-053] |  | 13.5% | 2.13% | 0.27% | 20.0% | 3.60% | 0.56% | 102% | 111% | less than 20% |  |  |  |  |  |
| Cc1ncc2n1-c1ccc(Cl)cc1C(c1ccccc1F)=NC2 [Midazolam] |  |  |  |  |  |  |  |  |  |  | 36.9 ± 13.5% | 18.7 ± 7.3% | 4.2 ± 2.2% | consistently metabolized | 104 ± 1.2% |
| C#Cc1ccc2c(c1)C(c1ccccc1F)=N[C@H](C)c1c(C(=O)OCC)ncn1-2 [SH-053-2′F-RCH3] |  | 86.7% | 86.7% | 86.9% | 97.9% | 105% | 105% | 115% | 117% |  |  |  |  |  |  |
| C#Cc1ccc2c(c1)C(c1ccccc1F)=N[C@@H](C)c1c(C(=O)OCC)ncn1-2 [SH-053-2′F-SCH3] |  | 6.18% | 0.85% | 3.85^d % | 11.7% | 1.72% | 0.20% | 110% | 114% | less than 12% |  |  |  |  |  |
| C#Cc1ccc2c(c1)C(c1ccccc1)=NCc1c(C(=O)O)ncn1-2 [XHe-II-053 Acid] |  | 108% | 106% | 111% | 95.6% | 95.0% | 95.0% | 106% | 97.4% |  |  |  |  |  |  |
| C#Cc1ccc2c(c1)C(c1ccccc1)=NCc1c(C(=O)OCC)ncn1-2 [XHe-II-053] |  | 41.4% | 11.1% | 1.46% | 47.6% | 13.9% | 1.74% | 107% | 102% |  |  |  |  |  |  |
| C#Cc1ccc2c(c1)C(c1ccccn1)=NCc1c(-c3nc(C(C)C)no3)ncn1-2 [ZJW-II-040, 5-(8-Ethynyl-6-(pyridin-2-yl)-4H-Benzo-[f]-Imidazo-[1,5-a]-[1,4]-Diazepine-3-yl)-3-Isopropyl-1,2,4-Oxadiazole] |  | 97.8% | 98.7% | 89.4% | 106% | 99.3% | 95.1% | 113% | 92.0% |  |  |  |  |  |  |
| C#Cc1ccc2c(c1)C(c1ccccn1)=NCc1c(C(=O)SC)ncn1-2 [ZJW-II-065, S-Methyl-8-Ethynyl-Methyl-6-(Pyridine-2-yl)-4H-Benzo-[f]-Imidazo-[1,5-a]-[1,4]-Diazepine-3-Carbothioate] |  | 98.4% | 97.0% | 82.5% | 111% | 106% | 95.6% | 105% | 110% |  |  |  |  |  |  |
